Data on one compound can be found in patent US20230265425A1, “lncRNA-REGULATED GENE EXPRESSION SYSTEM” (MEMORIAL SLOAN KETTERING CANCER CENTER, priority 2020, published 2023).

Where two headings read alike, the source gives them in different places.

One experiment has as its system Pho1 acid phosphatase. Description: Acid phosphatase activity assay of plasmid-bearing pho4Δ pho1Δ cells. The note with it: for Pho1 activity, % of the level attained with 15 μM thiamine: pTIN-pho1 cells. As to the method:
Acid phosphatase activity assay. Aliquots of exponentially growing cultures were harvested, washed with water, and re-suspended in water. To quantify acid phosphatase activity, reaction mixtures (200 μl) containing 100 mM sodium acetate (pH 4.2), 10 mM p-nitrophenyl phosphate (NEB), and cells (ranging from 0.01 to 0.1 A600 units) were incubated for 5 min at 30° C. The reactions were quenched by addition of 1 ml of 1 M sodium carbonate; the cells were removed by centrifugation and the absorbance of the supernatant was measured at 410 nm. Acid phosphatase activity is expressed as the ratio of A410 (p-nitrophenol production) to A600 (cells). The data are averages (±SEM) of at least three assays using cells from three independent cultures.
To assay the activity of this promoter system, pho1 was used as the reporter gene driven by the tgp1 promoter (FIG. 1A). Cell surface-associated Pho1 activity is readily assayable colorimetrically via the conversion ofp-nitrophenylphosphate to p-nitrophenol. The pho1 gene was cloned downstream of the tgp1 5′ UTR in the pTIN vector with its native 3′ flanking DNA to yield the pTIN-pho1 plasmid (FIG. 1A). To test background acid phosphatase levels, a promoter-less pTIN pho1 vector was constructed that lacked the DNA segment spanning the regulatory nmt1-promoternc·tgp1·tgp1 promoter region as well as the tgp1 5′ UTR and only contained the pho1 ORF. These plasmids were introduced into a strain in which the chromosomal pho1 and pho4 genes encoding the cell-surface acid phosphatases Pho1 and Pho4 were deleted. Plasmid-bearing pho1Δ pho4Δ cells were grown to mid-log phase in Leu^− PMG medium without thiamine and subsequently diluted and grown in Leu^− PMG medium with or without 15 μM thiamine. Pho1 acid phosphatase activity was measured by incubating dilutions of cells with p-nitrophenylphosphate and measuring its conversion to p-nitrophenol for 5 min at 30° C. The amount of product formed (within the linear range of detection) was normalized to cell density and is plotted on the y-axis in FIG. 1B.

In another experiment the test system is pho1 mRNA. Put plainly: microbe, parasite or virus in culture. The note with it: for fold induction at 15 µM: Schizosaccharomyces pombe. As to the method:
Total RNA prepared from harvested samples was analyzed by reverse transcription primer extension using a mixture of radiolabeled primers complementary to the pho1 (top panel) or the act1 (bottom panel) mRNAs. The reaction products were resolved by denaturing urea-PAGE and visualized by autoradiography. The images shown in the top and bottom panels are from a single exposure of one gel. For conciseness of the figure, the intervening lanes of the gel were cropped (represented by the thin line separating the 3 and 10-hour samples). The positions and sizes (in nucleotides) of DNA markers are indicated on the left. Fold-induction reflects the ratio of the act1-normalizedpho1 signal at the indicated time to time-0.
RNA analysis. Total RNA was extracted via the hot phenol method (Köhrer K. and Domdey H., Method Enzymol: 398-405 (1991), which is hereby incorporated by reference) from 3 A600 units of harvested yeast cells. For analysis of specific transcripts by primer extension, aliquots (5 μg) of total RNA were templated for M-MuLV reverse transcriptase-catalyzed extensions of 5′ 32P-labeled oligodeoxynucleotide primers complementary to the phot and actl mRNAs in one reaction mix. The primer sequence for act1 was, 5′-[…] (SEQ ID NO: 12), and for pho1, 5′-[…] (SEQ ID NO: 13). The primer extension reactions were performed as described by Schwer B., et al., Nucleic Acids Res 26: 2050-2057 (1998), which is hereby incorporated by reference, and the products were analyzed by electrophoresis of the reaction mixtures through a 22-cm 8% polyacrylamide gel containing 7 M urea in 80 mM Tris-borate, 1.2 mM EDTA. The ^32P-labeled primer extension products were visualized by autoradiography of the dried gel. Quantification of pho1 and act1 mRNA levels was done by scanning the dried gel with a phosphorimager and analyzing the data in ImageQuant software.
Pho1 acid phosphatase activity in pho1Δ pho4Δ A cells bearing the pTIN pho1 plasmid was determined as a function of time after addition of thiamine (FIG. 2A). […] To gauge the level of phol mRNA, primer extension analysis using a pho1-specific radiolabeled primer for reverse-transcription was used, in parallel with an actin gene-specific primer as a control.

As a reminder, the EC50 is the concentration that produces a half-maximal response. Regarding `Cc1ncc(C[n+]2csc(CCO)c2C)c(N)n1` [thiamine], the half-maximal effective concentration (EC50) in the experiment on Pho1 acid phosphatase (Schizosaccharomyces pombe, read-out: dose of half maximal response (EC50) of Pho1 activity) was 69 ± 5 nM. In addition, the fold induction at 15 µM was 59 in the experiment on Pho1 acid phosphatase (Schizosaccharomyces pombe, read-out: fold induction of Pho1 activity); 25 with pho1 mRNA (0.5 h, read-out: pho1 mRNA fold induction (act1-normalized, vs time-0)); 61 in the experiment with pho1 mRNA (1 h, read-out: pho1 mRNA maximum fold induction). The “rate of Pho1 activity increase between 7 and 11 hours, % of the initial rate (1 to 7 hours)” value with Pho1 acid phosphatase (pTIN pho1 cells after addition of 15 μM thiamine) is reported as 58%. Further, the “fold increase in acid phosphatase activity” value in the experiment with Pho1 acid phosphatase (pTIN pho1 cells, 15 μM thiamine vs thiamine-free medium, 21 hours) was 58 fold. For the same compound, the “fold increase in Pho1 level over the uninduced state” value in the experiment on Pho1 acid phosphatase (pTIN pho1 cells, 23 hours after addition of 15 μM thiamine) is 53 fold. The “Pho1 activity, % of the level attained with 15 μM thiamine” value is on record as 8% in the experiment with Pho1 acid phosphatase (0.01 μM thiamine); 16% in the experiment on Pho1 acid phosphatase (0.025 μM thiamine); 33% in the experiment with Pho1 acid phosphatase (0.05 μM thiamine); 54% with Pho1 acid phosphatase (0.075 μM thiamine); 73% in the experiment with Pho1 acid phosphatase (0.1 μM thiamine); 93% with Pho1 acid phosphatase (0.3 μM thiamine). Also, the “Pho1 activity, % of the level attained with 15 μM thiamine” value in the experiment with Pho1 acid phosphatase (3 μM thiamine) is given as 96%. Moreover, the “fold increase in Pho1 activity on addition of thiamine” value in the experiment on Pho1 acid phosphatase (pho1Δ pho4Δ cells bearing pTIN7m pho1, 22 hours) is 172 fold. Moreover, the “thiamine concentration at which induction was saturated” value in the experiment with Pho1 acid phosphatase (pho1Δ pho4Δ cells bearing pTIN-pho1) is at least 0.3 µM. In addition, the “transcriptional induction by the addition of thiamine (dynamic range of pTIN system)” value in the experiment on pho1 mRNA (pTIN system) is at most 60 fold. Further, the “time after induction at which target mRNA levels reach peak” value in the experiment with pho1 mRNA (pTIN system, thiamine induction) is at most 1 h. Moreover, the “pho1 mRNA level, fold higher than the uninduced state” value in the experiment with pho1 mRNA (pTIN-pho1 cells, all times assayed after 1 hour) is “approximately 60 fold”.
